The text below walks through data of EP3889132B1, “MONOACYLGLYCEROL LIPASE (MAGL) INHIBITORS” (Università di Pisa, priority 2020, dated 2021).

In test [1] the target is T1, recombinant human MAGL enzyme (Homo sapiens, UniProt Q99685).
T1 construct: purchased Cayman Chemical 10007812
T1 sequence (Q99685 1-303): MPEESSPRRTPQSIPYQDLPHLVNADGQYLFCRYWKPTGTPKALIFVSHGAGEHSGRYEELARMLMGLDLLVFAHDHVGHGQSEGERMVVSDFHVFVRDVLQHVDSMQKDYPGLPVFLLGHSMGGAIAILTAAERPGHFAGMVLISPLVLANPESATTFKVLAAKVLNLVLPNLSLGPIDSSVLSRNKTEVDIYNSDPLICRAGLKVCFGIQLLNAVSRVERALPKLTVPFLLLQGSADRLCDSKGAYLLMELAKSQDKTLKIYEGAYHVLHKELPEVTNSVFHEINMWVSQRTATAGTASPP
Kind of test: In vitro screening of activity on the recombinant human MAGL enzyme (4-NPA substrate, absorbance 405 nm). The settings on record: substrate 4-NPA, room temperature, 30 minutes. Format: biochemical. As for the experimental part: The compound 4-nitrophenyl acetate (4-NPA Merck-Sigma Aldrich, 8430750025) was used as a substrate for the recombinant human MAGL enzyme (Cayman Chemical, 10007812). IC50 values were generated in microplates containing 96 wells. The catalytic reaction was carried out at room temperature, at a final volume of 200 µL in 10 mM Tris buffer at pH 7.2 containing 1 mM EDTA and 0.1 mg/ml BSA. A total of 150 µL of 4-NPA 133.3 µM in ethanol was added to 10 µL of DMSO containing the appropriate amount of compound (500 - 0.00256 µM). The reaction began with the addition of 40 µL of the MAGL enzyme (11 ng/well). […] After the reaction continued for 30 minutes, the absorbance values were then measured using a Victor X3 (PerkinElmer®) microplate reader at a wavelength of 405 nm. Two other analyzes were also performed in parallel: one reaction without compounds and the second containing neither compound nor enzyme. […] The IC50 values were calculated from the experimental data (absorbance) through the construction of dose-response curves.

For test [2], the target named is T1, recombinant human MAGL enzyme. Kind of test: MAGL dilution assay with the recombinant human MAGL enzyme. In kind it is biochemical. The following applies: 20 µM vs 40X dilution (final 0.5 µM) vs 0.5 µM (Fig. 3). As for the experimental part: […] The mixture containing the inhibitor and the enzyme was then diluted 40 times with the buffer solution. After 15 minutes of incubation, the reaction was started in a 160 µL aliquot with the addition of 40 µL of 4-NPA 500 µM in buffer and the enzyme activity was measured according to the procedure described above.
The % of inhibition of the MAGL enzyme was calculated from the measured absorbance. The absorbance measured in the presence of only enzyme with vehicle and without compound was considered as absence of inhibition (positive control), while the absorbance measured in the wells with only vehicle without enzyme and without compound was considered as 100% inhibition (negative control). Intermediate absorbance values with respect to these two extremes indicate enzymatic inhibition and are calculated as the difference between the absorbance value in the well with the compound and the absorbance value of the negative control, all scaled as a percentage considering as the maximum value the negative control and minimum value of minimum inhibition the positive control.
In dilution experiments, if compound 15 were an irreversible inhibitor, its inhibitory potency should not decrease upon dilution.

The next test relates to HCT116. Kind of test: Cell viability assay (CellTiter-Glo) HCT116. In kind it is cell-based. The settings on record: Homo sapiens, HCT-116; cell viability after 96 hours; read-out: IC50 (µM, mean ± SD) HCT116. The method, then:
(§1) The following tumor cell lines, MDA-MB-231 (Cell Biolabs AKR-231), HCT116 (ATCC® CCL-247), CAOV3 (ATCC® HTB-75), OVCAR3 (ATCC® HTB-161) and SKOV3 (ATCC® HTB-77) were kept at 37 °C in a humidified atmosphere containing 5% CO2 according to the supplier. Cells (5 x 10^2) were plated in 96-well culture plates. The day after plating, the compounds were dissolved in DMSO and added at different concentrations to the medium (final DMSO concentration < 5%). The compounds were added to the cell culture at a concentration between 200 and 0.02 µM. Cell viability was measured after 96 hours with the CellTiter-Glo® Luminescent Cell Viability Assay kit in accordance with the supplier Promega (G7571) with a Tecan M1000 instrument. IC50 values were calculated from dose-response curves. The means were obtained from the triplicates (Table 2). Table 2. Cell viability inhibition activity (IC50, µM) of compound 15.
A general note: In ATP-based viability assays light output follows the ATP content of the culture.

For test [3], the target named is T1, recombinant human MAGL enzyme. Kind of test: Enzymatic kinetics experiments with scalar concentrations of 4-NPA (Michaelis-Menten, mixed-model inhibition fit). In kind it is biochemical. The settings on record: compound 1-0.125 µM, 4-NPA 15-1400 µM. The method, then: In enzymatic kinetics experiments, compound 15 was tested in the presence of scalar concentrations of […]. It was added in staggered amounts (concentration range = 1-0.125 µM in DMSO) to a reaction mix containing staggered concentrations of 4-NPA (15-1400 µM in ethanol). Finally, the buffer solution containing the recombinant human MAGL enzyme (11 ng/well) was added. The enzymatic activity was measured at room temperature by recording the increase in absorbance corresponding to the increase in the concentration of […] using a Victor X3 microplate reader (PerkinElmer®). The absorbance was converted into enzymatic rate by making appropriate use of positive and negative controls. The experimental data were analyzed by […] regression analysis applying the inhibition fit of the mixed model (Fig. 1).

Another test has as its system OVCAR3. Kind of test: Cell viability assay (CellTiter-Glo) OVCAR3. In kind it is cell-based. The settings on record: Homo sapiens, OVCAR-3; cell viability after 96 hours; read-out: IC50 (µM, mean ± SD) OVCAR3. The method, then: as §1
A further test has as its system SKOV3. Kind of test: Cell viability assay (CellTiter-Glo) SKOV3. In kind it is cell-based. The settings on record: Homo sapiens, SK-OV-3; cell viability after 96 hours; read-out: IC50 (µM, mean ± SD) SKOV3. The method, then: as §1
The next test deals with CAOV3. Kind of test: Cell viability assay (CellTiter-Glo) CAOV3. The settings on record: Homo sapiens, Caov-3; cell viability after 96 hours; read-out: IC50 (µM, mean ± SD) CAOV3. Format: cell-based. As for the experimental part: as §1
For the next test, the system named is MDA-MB-231. Kind of test: Cell viability assay (CellTiter-Glo) MDA-MB-231. Format: cell-based. The settings on record: Homo sapiens, cell viability after 96 hours, read-out: IC50 (µM, mean ± SD) MDA-MB-231. As for the experimental part: as §1

Usually IC50 stands for the point on the concentration scale where inhibition reaches its midpoint. Turning to `CCCCCCCC(=O)Nc1cc(-c2ccc(O)c(F)c2)ccc1O` [Compound 4, N-(3'-Fluoro-4,4'-dihydroxy-[1,1'-biphenyl]-3-yl)octanamide], in test [1], the half-maximal inhibitory concentration (IC50) was 0.61 ± 0.03 µM.

`CCCCCC(=O)Nc1cc(-c2ccc(O)c(F)c2)ccc1O` [Compound 2, N-(3'-Fluoro-4,4'-dihydroxy-[1,1'-biphenyl]-3-yl)hexanamide]: the half-inhibitory concentration (IC50) in test [1] is 3.2 ± 0.2 µM.

For `CC(C)(C)C(=O)Nc1cc(-c2ccc(O)c(F)c2)ccc1O` [Compound 11, N-(3'-Fluoro-4,4'-dihydroxy-[1,1'-biphenyl]-3-yl)pivalamide], in test [1], the IC50 was greater than 20 µM.

Take `CC(C)C(=O)Nc1cc(-c2ccc(O)c(F)c2)ccc1O` [Compound 10, N-(3'-Fluoro-4,4'-dihydroxy-[1,1'-biphenyl]-3-yl)isobutyramide]: in test [1], the IC50 worked out at 19.7 ± 1 µM.

As to `O=C(Cc1ccccc1)Nc1cc(-c2ccc(O)c(F)c2)ccc1O` [Compound 13, N-(3'-Fluoro-4,4'-dihydroxy-[1,1'-biphenyl]-3-yl)-2-phenylacetamide], the IC50 in test [1] amounted to 5.1 ± 0.5 µM.

With `CCCCCCC(=O)Nc1cc(-c2ccc(O)c(F)c2)ccc1O` [Compound 3, N-(3'-Fluoro-4,4'-dihydroxy-[1,1'-biphenyl]-3-yl)eptanamide], the IC50 in test [1] was determined as 1.1 ± 0.1 µM.

For `O=C(Nc1cc(-c2ccc(O)c(F)c2)ccc1O)c1ccccc1` [Compound 12, N-(3'-Fluoro-4,4'-dihydroxy-[1,1'-biphenyl]-3-yl)benzamide], the IC50 in test [1] is 6.9 ± 0.4 µM.

For the compound `CCCCC(=O)Nc1cc(-c2ccc(O)c(F)c2)ccc1O` [Compound 1, N-(3'-Fluoro-4,4'-dihydroxy-[1,1'-biphenyl]-3-yl)pentanamide], the IC50 in test [1] is 7.6 ± 0.1 µM.

`O=C(CCc1ccccc1)Nc1cc(-c2ccc(O)c(F)c2)ccc1O` [Compound 14, N-(3'-Fluoro-4,4'-dihydroxy-[1,1'-biphenyl]-3-yl)-3-phenylpropanamide]: the IC50 in test [1] was found to be 2 ± 0.1 µM.

As to `CCCCCCCCCCCCCC(=O)Nc1cc(-c2ccc(O)c(F)c2)ccc1O` [Compound 8, N-(3'-Fluoro-4,4'-dihydroxy-[1,1'-biphenyl]-3-yl)tetradecanamide], the concentration for half-maximal inhibition (IC50) in test [1] was found to be 2.5 ± 0.4 µM.

For the compound `CCCCCCCCCC(=O)Nc1cc(-c2ccc(O)c(F)c2)ccc1O` [Compound 6, N-(3'-Fluoro-4,4'-dihydroxy-[1,1'-biphenyl]-3-yl)decanamide], the IC50 in test [1] was 1.1 ± 0.1 µM.

Turning to `O=C(Cc1cccc2ccccc12)Nc1cc(-c2ccc(O)c(F)c2)ccc1O` [Compound 17, N-(3'-Fluoro-4,4'-dihydroxy-[1,1'-biphenyl]-3-yl)-2-(naphtalen-1-yl)acetamide], in test [1], the 50% inhibitory concentration (IC50) was found to be 1.9 ± 0.1 µM.

`CCCCCCCCC(=O)Nc1cc(-c2ccc(O)c(F)c2)ccc1O` [Compound 5, N-(3'-Fluoro-4,4'-dihydroxy-[1,1'-biphenyl]-3-yl)nonanamide]: the half-inhibitory concentration (IC50) in test [1] stood at 2.9 ± 0.1 µM.

`O=C(CCCCc1ccccc1)Nc1cc(-c2ccc(O)c(F)c2)ccc1O` [Compound 16, N-(3'-Fluoro-4,4'-dihydroxy-[1,1'-biphenyl]-3-yl)-5-phenylpentanamide]: the IC50 in test [1] amounted to 1.1 ± 0.1 µM.

One may read the Ki as a dissociation constant, usually derived from enzyme kinetics or from competition with a known ligand. Regarding `O=C(CCCc1ccccc1)Nc1cc(-c2ccc(O)c(F)c2)ccc1O` [Compound 15, N-(3'-Fluoro-4,4'-dihydroxy-[1,1'-biphenyl]-3-yl)-4-phenylbutanamide], the “Inhibition mechanism from percentage of inhibition after 40X dilution” value in test [2] is on record as “reversible inhibition”. Besides, the concentration for half-maximal inhibition (IC50) was determined as 0.34 ± 0.01 µM in test [1]; 14 ± 2 µM in the test with HCT116; 75 ± 4 µM in the test on OVCAR3; 16 ± 2 µM in the test with SKOV3; 34 ± 4 µM in the test on CAOV3; 75 ± 6 µM with MDA-MB-231. Moreover, the inhibition constant (Ki) in test [3] was determined as 0.146 µM.

With `CCCCCCCCCCCCCCCC(=O)Nc1cc(-c2ccc(O)c(F)c2)ccc1O` [Compound 9, N-(3'-Fluoro-4,4'-dihydroxy-[1,1'-biphenyl]-3-yl)palmitamide], in test [1], the IC50 is greater than 20 µM.

As for `CCCCCCCCCCCC(=O)Nc1cc(-c2ccc(O)c(F)c2)ccc1O` [Compound 7, N-(3'-Fluoro-4,4'-dihydroxy-[1,1'-biphenyl]-3-yl)dodecanamide], the IC50 in test [1] worked out at 2.8 ± 0.3 µM.
